In data set [1] the test system is T7-scv2-luc-GFP replicon (SEQ ID NO: 2). The data set is described as follows: microbe, parasite or virus in culture. It counts as cell-based, SARS-CoV-2.
The test system of data set [2] is T7GG-scv2-luc-GFP replicon. Nature of the data set: microbe, parasite or virus in culture. Format: cell-based, SARS-CoV-2.
Data set [3] relates to pSmart BAC T7-mcv-replicon. Nature of the data set: microbe, parasite or virus in culture. To be noted: for EC50: read-out: Antiviral activity (EC50) against T7-mcv-replicon. Format: cell-based, MERS. (In general: Replicon systems follow genome replication, usually without infectious particles.)
The test system of data set [4] is pSmart BAC T7-scv2-replicon. Nature of the data set: microbe, parasite or virus in culture. It counts as cell-based, SARS-CoV-2. Particulars: read-out: Antiviral activity (EC50) against T7-scv2-replicon.
The subject of data set [5] is pSmart BAC T7-scv1-replicon. Nature of the data set: microbe, parasite or virus in culture. Format: cell-based, SARS-CoV-1. Particulars: read-out: Antiviral activity (EC50) against T7-scv1-replicon.
[6] abbreviates: Severe acute respiratory syndrome coronavirus 2, Calu-1.
Setting [7] is: Severe acute respiratory syndrome coronavirus 2, Huh7.5.
The mark [8] stands for this setting: Severe acute respiratory syndrome coronavirus 2, HEK-293T.
[9] abbreviates: Severe acute respiratory syndrome coronavirus 2, A549.
Where [10] appears, read: Severe acute respiratory syndrome coronavirus 2, Vero.
The mark [11] stands for this setting: Middle East respiratory syndrome-related coronavirus, HEK-293T.
Where [12] appears, read: Severe acute respiratory syndrome coronavirus, HEK-293T.

Consider 10 compounds from US20230357870A1 (priority 2020, published 2023).

Usually EC50 stands for the concentration needed to bring the measured effect to its halfway point.

Entries after “also recorded” stand apart in the source; their conditions may differ. Read-outs that look alike come from different tables or passages of the source.

Take `Cc1cccc(/C=N/Nc2cc(N3CCOCC3)nc(OCCc3ccccn3)n2)c1` [Apilimod, apilimod]: the half-maximal effective concentration (EC50) in data set [1] (setting [6]), in data set [1] (setting [7]) and in data set [2] (setting [8]) was greater than 42000 nM throughout.

As to `CC(C)C[C@H](NC(=O)c1cc2ccccc2o1)C(=O)N[C@H]1CC[C@@H](C)N(S(=O)(=O)c2ccccn2)CC1=O` [Relacatib, relacatib], the concentration giving a half-maximal response (EC50) in data set [1] (setting [9]), in data set [1] (setting [6]), in data set [1] (setting [8]), in data set [1] (setting [10]) and in data set [2] (setting [8]) was greater than 42000 nM throughout.

For `CC(C)(C)NC(=O)N[C@H](C(=O)N1C[C@H]2[C@@H]([C@H]1C(=O)NC(CC1CCC1)C(=O)C(N)=O)C2(C)C)C(C)(C)C` (stereo partly shown) [MK-3034, Boceprevir], the concentration for a half-maximal effect (EC50) in data set [3] (setting [11]) stood at 4670 ± 519 nM; in data set [4] (setting [8]), 3550 ± 346 nM; in data set [5] (setting [12]), 6410 ± 427 nM.

For PF-00835231, the EC50 in data set [3] came out at 101 ± 33 nM; in data set [4], 74.8 ± 20 nM; in data set [5], 167 ± 15.3 nM. For the same compound, in data set [2], the “fold lower in Vero cells” value is 75-300 fold.

For the compound GC373, the values for the EC50 in data set [3], in data set [4] and in data set [5] were 29.2 ± 3.7 nM, 19.7 ± 4.6 nM and 74 ± 4.5 nM, respectively.

As to `CCC(CC)COC(=O)[C@H](C)N[P@](=O)(OC[C@H]1O[C@@](C#N)(c2ccc3c(N)ncnn23)[C@H](O)[C@@H]1O)Oc1ccccc1` [Remdesivir, remdesivir], the concentration giving a half-maximal response (EC50) is 184 nM in data set [1] (setting [9]); 62.8 nM in data set [1] (setting [6]); 11.3 nM in data set [1] (setting [8]); 18.9 nM in data set [1] (setting [7]); 2240 nM in data set [1] (setting [10]); 81.5 ± 8.8 nM in data set [3] (setting [11]). Moreover, the EC50 in data set [4] (setting [8]) turned out to be 15.6 ± 5.1 nM; in data set [5] (setting [12]), 42.9 ± 3.4 nM.

With GC376, the EC50 in data set [1] (read-out: potency in inhibiting SARS-CoV-2 replicon replication (EC50), determined by % GFP signal) worked out at 22 ± 5.13 nM; in data set [1] (read-out: potency in inhibiting SARS-CoV-2 replicon replication (EC50), determined by % luciferase activity), 29.2 ± 9.17 nM; in data set [3], 35.2 ± 5.3 nM; in data set [4] it was 20.8 ± 5.6 nM; in data set [5], 75.9 ± 23.2 nM. Also, the cytotoxicity result in the data set on 293T cells was “No cytotoxicity was detected”. Also, in data set [2], the “antiviral activity (in words)” value is reported as “highly potent; also recorded: modestly active”.

For `N#C[C@@]1(c2ccc3c(N)ncnn23)O[C@H](CO)[C@@H](O)[C@H]1O` [GS-441524], the concentration for a half-maximal effect (EC50) came to 1470 ± 163 nM in data set [1] (setting [9]); 1330 ± 270 nM in data set [1] (setting [6]); 603 ± 131 nM in data set [1] (setting [8]); 645 ± 54.3 nM in data set [1] (Severe acute respiratory syndrome coronavirus 2, HEK-293T, 30 h, read-out: potency in inhibiting SARS-CoV-2 replicon replication (EC50), determined by % GFP signal); 502 ± 109 nM in data set [1] (Severe acute respiratory syndrome coronavirus 2, HEK-293T, 30 h, read-out: potency in inhibiting SARS-CoV-2 replicon replication (EC50), determined by % luciferase activity); 1030 ± 354 nM in data set [1] (setting [7]). Besides, the EC50 in data set [1] (setting [10]) came to 302 ± 19.8 nM; in data set [3] (setting [11]) it was 5580 ± 357 nM; in data set [2] (setting [9]) it was 716 ± 311 nM; in data set [2] (setting [6]) it was 1000 ± 217 nM; in data set [2] (setting [8]) it was 657 ± 66.4 nM; in data set [2] (setting [7]), 831 ± 201 nM. The concentration giving a half-maximal response (EC50) came to 324 ± 173 nM in data set [2] (setting [10]), 603 ± 106 nM in data set [4] (setting [8]) and 1110 ± 86.5 nM in data set [5] (setting [12]). Moreover, the “concentration to achieve 50% inhibition, MERS replicon compared with SARS-CoV-2 or SARS-CoV-1 replicon” value in data set [3] is reported as “greater concentration”. In the data set with 293T cells, the cytotoxicity result was “No cytotoxicity was detected”. The “antiviral activity (in words)” value in data set [2] is “active”.

For `CN(C)C(=O)COC(=O)Cc1ccc(OC(=O)c2ccc(NC(=N)N)cc2)cc1` [Camostat, camostat], the concentration giving a half-maximal response (EC50) in data set [1] (setting [9]), in data set [1] (setting [6]), in data set [1] (setting [8]), in data set [1] (setting [10]) and in data set [2] (setting [8]) was greater than 42000 nM in each case.

In the case of `N=C(N)c1ccc2cc(OC(=O)c3ccc(N=C(N)N)cc3)ccc2c1` [Nafamostat, nafamostat], the EC50 in data set [1] (setting [9]) was greater than 42000 nM; in data set [1] (setting [6]), greater than 42000 nM; in data set [1] (setting [8]), greater than 42000 nM; in data set [1] (Severe acute respiratory syndrome coronavirus 2, Vero C1008) it was greater than 42000 nM; in data set [2] (setting [8]) it was greater than 42000 nM.
